In paper PMC10054465, “Design, Synthesis, and Antiviral Activities of New Benzotriazole-Based Derivatives” (Pharmaceuticals, 2023):
“Also recorded” adds a separate entry of the source. Read-outs that look alike come from different tables or passages of the source.

What was measured:
BVDV = assay: microbe, parasite or virus in culture; type: cell-based; conditions: Bovine viral diarrhea virus isolates and strains, MDBK, read-out: BVDV EC50
YFV = assay: microbe, parasite or virus in culture; type: cell-based; conditions: Yellow fever virus, BHK-21, read-out: YFV EC50
Reo-1 = assay: microbe, parasite or virus in culture; type: cell-based, Reovirus type-1; conditions: Reovirus sp., BHK-21, read-out: Reo-1 EC50
CVB5 [1] = assay: microbe, parasite or virus in culture; type: cell-based, human enterovirus B (coxsackievirus B5); conditions: Enterovirus B, CVB5, Vero 76, read-out: CVB5 EC50
Sb-1 = assay: microbe, parasite or virus in culture; type: cell-based, human enterovirus C (poliovirus type-1); conditions: Enterovirus C, Vero 76, read-out: Sb-1 EC50
VV = assay: microbe, parasite or virus in culture; type: cell-based; conditions: Orthopoxvirus vaccinia, Vero 76, read-out: VV EC50
HSV-1 = assay: microbe, parasite or virus in culture; type: cell-based, human herpesvirus 1; conditions: Human alphaherpesvirus 1, Vero 76, read-out: HSV-1 EC50
VSV = assay: microbe, parasite or virus in culture; type: cell-based; conditions: Vesicular stomatitis virus, Vero 76, read-out: VSV EC50
RSV = assay: microbe, parasite or virus in culture; type: cell-based; conditions: human respiratory syncytial virus, Vero 76, read-out: RSV EC50
[2] = Cytotoxicity in mock-infected MDBK cells (MTT); conditions: cattle (Bos taurus), mock-infected
[3] = Cytotoxicity in mock-infected Vero-76 monolayers; conditions: African green monkey (Cercopithecus aethiops)
[4] = Cytotoxicity in mock-infected BHK-21 monolayers (MTT); conditions: Syrian hamster (Mesocricetus auratus)
CVB = conditions: cited from earlier work
CVB5 virions = assay: Virucidal activity assay; type: cell-based, human enterovirus B (coxsackievirus B5); conditions: 20 µM, 4 °C or 37 °C
CVB5 [5] = assay: Cell pre-treatment assay (viral yield by plaque assay); type: cell-based, human enterovirus B (coxsackievirus B5); conditions: Vero-76 pre-treated 2 h with 20 µM, then CVB5; not treated control 3 × 10^5 PFU/mL
CVB5 [6] = assay: Time of addition assay; type: cell-based, human enterovirus B (coxsackievirus B5); conditions: 20 µM
[7] = Vero-76 cell monolayers, mock-infected
[8] = BHK-21 cell monolayers, mock-infected
[9] = African green monkey (Cercopithecus aethiops)

SMILES | EC50 (BVDV) [µM] | EC50 (YFV) [µM] | EC50 (Reo-1) [µM] | EC50 (CVB5 [1]) [µM] | EC50 (Sb-1) [µM] | EC50 (VV) [µM] | EC50 (HSV-1) [µM] | EC50 (VSV) [µM] | EC50 (RSV) [µM] | melting point [°C] | CC50 [2] [µM] | CC50 [3, 7] [µM] | CC50 [4, 8] [µM] | also measured
Cc1cc2nn(Cc3ccc(N)cc3)nc2cc1C [11b] | > 100 | > 100 | > 100 | 6 | > 100 | > 100 | > 100 | > 100 | > 100 | 169 to 171 | > 100 | > 100 | > 100 | 
COc1cc(C(=O)Nc2cccc(Cn3nnc4cc(Cl)c(Cl)cc43)c2)cc(OC)c1OC [41a] | > 100 | > 100 | > 7 | 18.5 ± 2.1 | > 100 | > 100 | > 100 | > 100 | > 10.5 | 142 to 144 | > 100 | > 100 | > 100 | CC50 ([3]; Vero-76 cells): 10.5 µM; CC50 ([4]; BHK-21 cells): 7 µM
C[C@@]1(O)[C@H](O)[C@@H](CO)O[C@H]1n1ccc(N)nc1=O [NM107, 2’-C-methylcytidine, reference compound] |  |  | 6 ± 2.1 |  |  |  |  |  |  |  |  |  | > 100 | 
O=C(CCC(=O)Nc1ccc(Cn2nnc3cc(Cl)c(Cl)cc32)cc1)Nc1ccc(Cn2nnc3cc(Cl)c(Cl)cc32)cc1 [B, N1,N4-bis(4-((5,6-dichloro-1H-benzo[d][1,2,3]triazol-1-yl)methyl)phenyl)succinamide] |  |  |  |  |  |  |  |  |  |  |  |  |  | EC50 (CVB): 23 µM
O=C(CCC(=O)Nc1ccc(-n2nnc3cc(Cl)c(Cl)cc32)cc1)Nc1ccc(-n2nnc3cc(Cl)c(Cl)cc32)cc1 [A, N1,N4-bis(4-(5,6-dichloro-1H-benzo[d][1,2,3]triazol-1-yl)phenyl)succinamide] |  |  |  |  |  |  |  |  |  |  |  |  |  | activity against CVB (in words) (CVB): not active
CCCNC(=O)Nc1ccc(Cn2nnc3cc(C)c(C)cc32)cc1 [99b] | > 100 | > 100 | > 100 | 16 | > 100 | > 100 | > 100 | > 100 | > 100 | 190 to 192 | > 100 | > 100 | > 100 | 
COc1cc(C(=O)Nc2ccc(Cn3nnc4c(F)cccc43)cc2)cc(OC)c1OC [21e] |  |  |  | > 100 | > 100 | > 100 | > 100 | > 100 | 20 ± 2 | 177 to 179 | 72 | > 100 | 60 | 
CC(=O)Nc1ccc(Cn2nnc3ccccc32)cc1 [79c] | > 44 | > 86 | > 86 | > 72 | > 72 | > 72 | > 72 | > 72 | > 9 | 187 to 189 | 44 | 72 | 86 | CC50 ([3]; Vero-76 cells): 9 µM
Nc1cccc(Cn2nnc3cc(Cl)c(Cl)cc32)c1 [6a] | > 100 |  |  | 52 ± 3.6 | > 100 | 62.5 ± 16.2 | > 100 | > 100 | > 100 | 161 to 162 | > 100 | > 100 | 57 | 
Cc1cc2nnn(Cc3ccc(NC(=O)NC4CCCCC4)cc3)c2cc1C [100b] | > 100 | > 100 | > 100 | 50 | > 100 |  | > 100 | > 100 | > 100 | 216 to 218 | > 100 | > 100 | > 100 | 
Nc1ccc(Cn2nc3cc(F)c(F)cc3n2)cc1 [11d] | > 100 | > 100 | > 100 | 7.6 ± 1.9 | > 100 | > 100 | > 100 | > 100 | > 100 | 149 to 150 | > 100 | > 100 | > 100 | 
Cc1cc2nn(Cc3cccc(NC(=O)c4ccc(F)cc4)c3)nc2cc1C [25b] | > 100 | > 100 | > 100 | 47 ± 2.2 | > 100 | > 100 | > 100 | > 100 | > 100 | 211 to 212 | > 100 | > 100 | > 100 | 
O=c1cnn([C@@H]2O[C@H](CO)[C@@H](O)[C@H]2O)c(=O)[nH]1 [6az-ur, 6-azauridine, reference compound] |  | 46 ± 2.5 |  |  |  |  |  |  | 1.1 ± 0.4 |  |  | 9.3 ± 1.6 | > 100 | 
CC(C)(C)C(=O)Nc1ccc(Cn2nnc3c(F)cccc32)cc1 [18e, N-(4-((4-fluoro-1H-benzo[d][1,2,3]triazol-1-yl)methyl)phenyl)pivalamide] | > 100 | > 100 | > 100 | 12.4 ± 0.6 | > 100 | > 100 | 52 ± 9.2 | > 100 | > 9 |  | > 100 | > 100 | > 100 | virucidal effect on CVB5 titer (in words) (CVB5 virions): no virucidal activity; also recorded: no difference between the titers; viral load after cell pre-treatment (CVB5 [5]): 7× 10^4 PFU/mL; antiviral effect, compound added during the infection period (in words) (CVB5 [6]; Vero-76, CVB5 m.o.i. 1): antiviral effect was kept; titer reduction, compound added during subsequent steps of the replication cycle (in words) (CVB5 [6]; Vero-76, CVB5 m.o.i. 1, post infection): No titer reduction; TEER values versus control (in words) (Caco-2 cell monolayers): did not significantly differ from control values; % Late apoptotic cells (Vero-76 cells): 8.3 ± 0.34%; % Live cells (Vero-76 cells): 72.87 ± 1.21%; % Necrotic cells (Vero-76 cells): 12.44 ± 2.35%; % Late apoptotic cells (Vero-76 cells; [9]): 1.03 ± 0.34%; % Live cells (Vero-76 cells; [9]): 94.45 ± 2.55%; % Necrotic cells (Vero-76 cells; [9]): 4.12 ± 2.3%; CC50 ([3]; Vero-76 cells): 9 µM
CCCCNC(=O)Nc1cccc(Cn2nc3cc(C)c(C)cc3n2)c1 [32b] |  | > 100 | > 100 | > 100 | 85 | > 100 | > 100 | > 100 | > 100 | 288 to 289 | > 100 | > 100 | > 100 | 
O=C(Nc1cccc(Cn2nnc3cc(Cl)c(Cl)cc32)c1)c1ccc(Cl)cc1 [43a, N-(3-((5,6-dichloro-1H-benzo[d][1,2,3]triazol-1-yl)methyl)phenyl)-4-chlorobenzamide] | > 100 | > 100 | > 100 | 9 ± 1.6 | > 100 | > 100 | > 100 | > 100 | > 9.2 |  | > 100 | > 100 | > 100 | TEER values versus control (in words) (Caco-2 cell monolayers): did not significantly differ from control values; CC50 ([3]; Vero-76 cells): 9.2 µM
